# Reference: patent US11655235B2, “Pyrrolidine and piperidine compounds” (YUHAN CORPORATION, priority 2019, dated 2023)
# pIC50: −log10 of the molar value.
# How the values were obtained:
# recombinant human DPP7 = target: T1, recombinant human DPP7 (Homo sapiens, UniProt Q9UHL4); assay: DPP7 inhibition, fluorogenic substrate Lys-Pro-AMC; assay type: biochemical; details: recombinant human DPP7
# T1 construct: purchased R&D Systems
# How it was run: (§1)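 Enzyme per reaction: 50 ng DPP9, 20 ng DPP8, 10 ng each DPP7 and PREP. Compounds were serially diluted (8 points, up to 0.5% DMSO) and incubated at 25 °C.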
# recombinant human DPP8 = target: T2, recombinant human DPP8 (Homo sapiens, UniProt Q6V1X1); assay: DPP8 inhibition, fluorogenic substrate Z-Ala-Pro-AMC; assay type: biochemical; details: recombinant human DPP8
# T2 construct: purchased PBS Bioscience
# T2 sequence (Q6V1X1 whole entry): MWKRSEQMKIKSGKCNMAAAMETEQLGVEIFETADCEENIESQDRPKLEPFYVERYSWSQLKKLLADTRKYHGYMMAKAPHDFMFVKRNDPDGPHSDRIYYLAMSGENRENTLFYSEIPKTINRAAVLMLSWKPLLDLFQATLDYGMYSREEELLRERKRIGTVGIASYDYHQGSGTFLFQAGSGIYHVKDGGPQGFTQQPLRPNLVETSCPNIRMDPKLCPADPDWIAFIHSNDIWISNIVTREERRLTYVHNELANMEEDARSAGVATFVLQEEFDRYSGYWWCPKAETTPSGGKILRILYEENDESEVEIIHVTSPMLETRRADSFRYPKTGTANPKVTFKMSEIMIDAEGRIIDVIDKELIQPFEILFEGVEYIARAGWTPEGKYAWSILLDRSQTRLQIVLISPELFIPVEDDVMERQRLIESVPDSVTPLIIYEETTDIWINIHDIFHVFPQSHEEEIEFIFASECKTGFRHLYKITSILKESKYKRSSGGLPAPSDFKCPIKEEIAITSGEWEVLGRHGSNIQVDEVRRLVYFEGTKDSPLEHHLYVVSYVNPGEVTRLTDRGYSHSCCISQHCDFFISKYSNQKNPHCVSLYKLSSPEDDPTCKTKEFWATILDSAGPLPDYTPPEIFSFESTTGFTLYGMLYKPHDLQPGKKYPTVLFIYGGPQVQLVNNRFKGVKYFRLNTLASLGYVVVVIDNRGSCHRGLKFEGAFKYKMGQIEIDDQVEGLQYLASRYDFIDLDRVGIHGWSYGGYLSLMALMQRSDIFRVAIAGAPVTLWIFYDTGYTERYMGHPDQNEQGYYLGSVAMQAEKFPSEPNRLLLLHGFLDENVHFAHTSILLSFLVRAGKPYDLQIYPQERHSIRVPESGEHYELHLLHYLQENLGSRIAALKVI
# How it was run: as §1
# recombinant human DPP9 = target: T3, recombinant human DPP9 (Homo sapiens, UniProt Q86TI2); assay: DPP9 inhibition, fluorogenic substrate H-Gly-Pro-AMC; assay type: biochemical; details: recombinant human DPP9
# T3 construct: purchased R&D Systems
# T3 sequence (Q86TI2 whole entry): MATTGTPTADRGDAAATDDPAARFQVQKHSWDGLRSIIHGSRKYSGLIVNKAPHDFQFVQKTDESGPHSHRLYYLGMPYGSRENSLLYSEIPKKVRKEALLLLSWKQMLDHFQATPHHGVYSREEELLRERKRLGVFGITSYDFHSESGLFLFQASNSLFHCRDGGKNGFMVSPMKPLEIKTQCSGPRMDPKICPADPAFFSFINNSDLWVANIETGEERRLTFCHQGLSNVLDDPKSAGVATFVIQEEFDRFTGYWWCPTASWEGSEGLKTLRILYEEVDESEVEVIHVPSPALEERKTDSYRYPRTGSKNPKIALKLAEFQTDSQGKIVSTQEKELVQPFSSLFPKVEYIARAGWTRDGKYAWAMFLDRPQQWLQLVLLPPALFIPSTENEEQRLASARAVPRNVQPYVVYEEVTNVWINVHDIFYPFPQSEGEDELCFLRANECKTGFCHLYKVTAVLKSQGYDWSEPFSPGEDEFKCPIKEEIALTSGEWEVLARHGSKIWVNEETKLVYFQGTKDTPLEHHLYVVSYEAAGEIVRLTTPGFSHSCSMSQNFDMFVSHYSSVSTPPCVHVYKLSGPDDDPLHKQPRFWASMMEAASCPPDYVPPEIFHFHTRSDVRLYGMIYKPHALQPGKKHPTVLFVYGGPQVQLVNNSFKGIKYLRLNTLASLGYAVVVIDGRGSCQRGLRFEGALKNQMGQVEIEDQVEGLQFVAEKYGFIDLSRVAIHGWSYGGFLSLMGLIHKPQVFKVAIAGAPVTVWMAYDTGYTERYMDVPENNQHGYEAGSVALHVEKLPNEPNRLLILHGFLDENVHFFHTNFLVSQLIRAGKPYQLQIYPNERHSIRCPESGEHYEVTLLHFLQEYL
# How it was run: as §1
# recombinant human PREP = target: T4, recombinant human PREP (Homo sapiens, UniProt P48147); assay: PREP inhibition, fluorogenic substrate Z-Gly-Pro-AMC; assay type: biochemical; details: Inhibitory Activity (IC50, nM) PREP, recombinant human PREP
# T4 construct: purchased R&D System
# T4 sequence (P48147 1-710): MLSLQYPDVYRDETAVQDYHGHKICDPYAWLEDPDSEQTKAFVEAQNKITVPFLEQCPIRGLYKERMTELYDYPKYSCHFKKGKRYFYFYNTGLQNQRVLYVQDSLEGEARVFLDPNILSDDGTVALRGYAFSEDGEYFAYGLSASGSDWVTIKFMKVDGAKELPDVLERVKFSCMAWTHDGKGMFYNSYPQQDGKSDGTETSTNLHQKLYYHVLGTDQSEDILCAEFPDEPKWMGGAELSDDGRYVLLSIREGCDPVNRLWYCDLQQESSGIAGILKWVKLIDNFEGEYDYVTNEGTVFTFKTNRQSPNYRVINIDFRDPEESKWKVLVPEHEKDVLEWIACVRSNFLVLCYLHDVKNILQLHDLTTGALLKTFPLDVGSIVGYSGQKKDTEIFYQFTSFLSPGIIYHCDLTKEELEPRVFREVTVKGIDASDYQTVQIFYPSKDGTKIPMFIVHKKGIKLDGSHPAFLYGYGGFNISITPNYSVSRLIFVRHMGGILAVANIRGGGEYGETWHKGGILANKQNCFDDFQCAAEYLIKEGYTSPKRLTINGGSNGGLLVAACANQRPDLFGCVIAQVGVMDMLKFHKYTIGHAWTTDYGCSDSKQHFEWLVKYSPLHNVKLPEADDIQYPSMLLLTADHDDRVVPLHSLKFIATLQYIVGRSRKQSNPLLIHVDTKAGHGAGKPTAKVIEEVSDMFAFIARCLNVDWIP
# How it was run: as §1
# Recombinant human FAP = target: T5, Recombinant human FAP (Homo sapiens, UniProt Q12884); assay: FAP FRET assay, FGF21-sequence FRET peptide substrate; assay type: biochemical; details: FRET peptide with human FGF21 sequence, 6 μM, 37° C.
# T5 construct: purchased R&D systems
# T5 sequence (Q12884 1-760): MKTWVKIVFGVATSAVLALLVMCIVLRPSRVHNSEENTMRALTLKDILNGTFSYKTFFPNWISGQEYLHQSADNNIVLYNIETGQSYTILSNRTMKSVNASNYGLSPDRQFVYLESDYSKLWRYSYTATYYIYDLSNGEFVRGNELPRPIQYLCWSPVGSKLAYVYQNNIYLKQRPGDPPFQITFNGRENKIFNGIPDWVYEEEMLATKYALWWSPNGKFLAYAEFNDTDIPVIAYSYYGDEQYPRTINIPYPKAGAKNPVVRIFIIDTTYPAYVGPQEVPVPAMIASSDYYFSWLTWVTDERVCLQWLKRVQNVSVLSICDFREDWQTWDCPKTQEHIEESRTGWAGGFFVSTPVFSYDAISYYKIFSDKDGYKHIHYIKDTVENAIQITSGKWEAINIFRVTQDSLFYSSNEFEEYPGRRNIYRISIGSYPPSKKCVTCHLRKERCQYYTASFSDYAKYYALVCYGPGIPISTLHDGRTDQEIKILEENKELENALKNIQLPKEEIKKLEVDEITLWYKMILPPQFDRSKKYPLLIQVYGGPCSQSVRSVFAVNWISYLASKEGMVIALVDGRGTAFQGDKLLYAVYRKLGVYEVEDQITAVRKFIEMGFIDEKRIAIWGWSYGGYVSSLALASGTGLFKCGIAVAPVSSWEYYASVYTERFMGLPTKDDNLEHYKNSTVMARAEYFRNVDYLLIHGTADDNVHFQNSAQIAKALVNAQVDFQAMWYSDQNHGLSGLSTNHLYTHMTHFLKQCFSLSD
# How it was run: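 Recombinant human FAP, 10 ng per reaction, in 50 mM HEPES pH 7.2 with 150 mM NaCl, 0.1 mg/ml BSA, 1 mM EDTA; HyLite Fluor 488/QXL 520 FRET peptide of human FGF21 sequence at 6 μM final, ≤0.1% DMSO, 37° C. IC50 from 8-point curves by four-parameter logistic fit.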
# DPP4 [1] = target: T6, DPP4 (Homo sapiens, UniProt P27487); assay: DPP4 inhibition, fluorogenic substrate H-Gly-Pro-AMC; assay type: biochemical; design: purchased R&D Systems; details: recombinant human DPP4
# Target sequence in this assay (P27487 whole entry): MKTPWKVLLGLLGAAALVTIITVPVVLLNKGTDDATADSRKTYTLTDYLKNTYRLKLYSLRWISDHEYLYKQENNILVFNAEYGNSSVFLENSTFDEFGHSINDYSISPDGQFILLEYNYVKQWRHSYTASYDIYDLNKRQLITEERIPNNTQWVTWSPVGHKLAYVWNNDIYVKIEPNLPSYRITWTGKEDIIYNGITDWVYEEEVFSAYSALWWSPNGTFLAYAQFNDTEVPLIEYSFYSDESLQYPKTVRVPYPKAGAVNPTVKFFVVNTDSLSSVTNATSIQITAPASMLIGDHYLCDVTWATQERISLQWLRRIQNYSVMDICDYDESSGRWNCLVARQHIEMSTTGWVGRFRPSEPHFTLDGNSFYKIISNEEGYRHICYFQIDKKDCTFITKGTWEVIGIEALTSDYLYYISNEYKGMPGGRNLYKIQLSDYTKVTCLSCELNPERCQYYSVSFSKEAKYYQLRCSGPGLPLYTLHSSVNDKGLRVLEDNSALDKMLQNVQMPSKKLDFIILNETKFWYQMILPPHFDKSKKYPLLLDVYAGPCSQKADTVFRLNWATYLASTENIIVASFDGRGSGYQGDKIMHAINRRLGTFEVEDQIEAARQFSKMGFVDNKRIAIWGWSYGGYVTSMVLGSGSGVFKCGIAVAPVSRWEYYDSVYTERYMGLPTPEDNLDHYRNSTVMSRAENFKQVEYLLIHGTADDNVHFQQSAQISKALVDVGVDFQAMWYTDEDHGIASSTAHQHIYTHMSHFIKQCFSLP
# DPP4 [2] = target: T6, DPP4; details: cited from earlier work
# Target sequence in this assay (P27487 whole entry, species assumed): as the sequence (P27487 whole entry) above
# tumors = details: orally administered, mice; cited from earlier work
pIC50 (recombinant human DPP7),pIC50 (recombinant human DPP8),pIC50 (recombinant human DPP9),IC50 (recombinant human PREP) [nM],pIC50 (Recombinant human FAP),pIC50 (DPP4 [1]),SMILES,DPP4 inhibitory activity (DPP4 [2]),anticancer activities (tumors)
4.80,4.44,≤ 4.00,5010,8.25,4.43,"N#C[C@@H]1CCCN1C(=O)CN1CCC(Oc2ccnc3ccc(F)cc23)CC1 [Example 427, (2S)-1-[2-[4-[(6-fluoro-4-quinolyl)oxy]-1-piperidyl]acetyl]pyrrolidine-2-carbonitrile]",–,–
5.51,5.51,5.41,98,8.29,5.25,"N#C[C@@H]1C[C@H](F)CN1C(=O)CN1CCC(Oc2ccnc3cc(F)ccc23)CC1 [Example 433, (2S,4S)-4-fluoro-1-[2-[4-[(7-fluoro-4-quinolyl)oxy]-1-piperidyl]acetyl]pyrrolidine-2-carbonitrile]",–,–
5.37,5.56,5.35,395,8.44,5.61,"N#Cc1cccc2c(OC3CCN(CC(=O)N4C[C@@H](F)C[C@H]4C#N)CC3)ccnc12 [Example 434, 4-[[1-[2-oxo-2-[(2S,4S)-2-cyano-4-fluoro-pyrrolidin-1-yl]ethyl]-4-piperidyl]oxy]quinoline-8-carbonitrile]",–,–
5.07,4.93,4.74,555,7.95,5.04,"Cc1cc(OC2CCN(CC(=O)N3C[C@@H](F)C[C@H]3C#N)CC2)c2ccccc2n1 [Example 436, (2S,4S)-4-fluoro-1-[2-[4-[(2-methyl-4-quinolyl)oxy]-1-piperidyl]acetyl]pyrrolidine-2-carbonitrile]",–,–
5.20,5.38,4.76,454,8.74,5.35,"Cc1cc(OC2CCN(CC(=O)N3C[C@@H](F)C[C@H]3C#N)CC2)c2cc(F)ccc2n1 [Example 437, (2S,4S)-4-fluoro-1-[2-[4-[(6-fluoro-2-methyl-4-quinolyl)oxy]-1-piperidyl]acetyl]pyrrolidine-2-carbonitrile]",–,–
5.45,5.47,5.22,156,8.11,5.25,"COc1cccc2c(OC3CCN(CC(=O)N4C[C@@H](F)C[C@H]4C#N)CC3)ccnc12 [Example 438, (2S,4S)-4-fluoro-1-[2-[4-[(8-methoxy-4-quinolyl)oxy]-1-piperidyl]acetyl]pyrrolidine-2-carbonitrile]",–,–
5.51,5.57,5.26,75,8.43,5.20,"Cc1cccc2c(OC3CCN(CC(=O)N4C[C@@H](F)C[C@H]4C#N)CC3)ccnc12 [Example 439, (2S,4S)-4-fluoro-1-[2-[4-[(8-methyl-4-quinolyl)oxy]-1-piperidyl]acetyl]pyrrolidine-2-carbonitrile]",–,–
–,–,–,–,–,–,"CC(C)[C@H](N)C(=O)N1CCC[C@H]1B(O)O [Val-boroPro, Talabostat]",inhibitory activity,–
–,–,–,–,–,–,"CC(C)[C@H](N)C(=O)N1CCC[C@H]1B(O)O [ValboroPro, Val-boroPro]",–,exhibits anticancer activities in mice by delaying the proliferation of tumors and inducing the degeneration of tumors
